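Growth conditions: 96-well plates. Treatment: test compound, 48 hours, 5 concentrations. Analysis: linear interpolation between bracketing concentrations; unreached endpoints set to highest concentration. Abbreviation: GI50, concentration required for 50% inhibition of growth. At the TGI there is no net growth.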 Where a SMILES comes first, the peptide text is derived from it. [ ]: non-standard residue; d: D form. The star is where a group is joined. ξ: configuration not given here. ξF = NC(Cc1ccccc1)C(=O)O; Cbz = O=C(OCc1ccccc1)*; Aib = CC(C)(N)C(=O)O
Assays:
Assay in all cases: NCI tumour cell line growth inhibition, 48 h
COLO 205 colon = tested on: COLO 205 colon
A498 renal = tested on: A498 renal
LXFL 529 NSCLC = tested on: LXFL 529 NSCLC
LOX IMVI melanoma = tested on: LOX IMVI melanoma
M19-MEL melanoma = tested on: M19-MEL melanoma
OVCAR-8 ovarian = tested on: OVCAR-8 ovarian
SNB-19 CNS = tested on: SNB-19 CNS
HOP-92 NSCLC = tested on: HOP-92 NSCLC
SF-295 CNS = tested on: SF-295 CNS
NCI-H460 lung = tested on: NCI-H460 lung
PC-3 prostate = tested on: PC-3 prostate

Structure (SMILES) | TGI (COLO 205 colon) [µM] | TGI (A498 renal) [µM] | TGI (LXFL 529 NSCLC) [µM] | TGI (LOX IMVI melanoma) [µM] | TGI (M19-MEL melanoma) [µM] | TGI (OVCAR-8 ovarian) [µM] | TGI (SNB-19 CNS) [µM] | TGI (HOP-92 NSCLC) [µM] | TGI (SF-295 CNS) [µM] | TGI (NCI-H460 lung) [µM] | TGI (PC-3 prostate) [µM] | GI50 (PC-3 prostate) [µM] | GI50 (COLO 205 colon) [µM] | GI50 (A498 renal) [µM] | GI50 (LOX IMVI melanoma) [µM] | GI50 (OVCAR-8 ovarian) [µM] | GI50 (SNB-19 CNS) [µM] | GI50 (HOP-92 NSCLC) [µM] | GI50 (SF-295 CNS) [µM] | GI50 (NCI-H460 lung) [µM]
COc1cc(OC)c2c(O)cc(CC(C)O)cc2c1 (configuration not stated) | > 100 | > 100 | > 100 | > 100 | > 100 | > 100 | > 100 | > 100 | > 100 | > 100 |  |  |  |  |  |  |  |  |  | 
CCCCOC(=O)CNC(=O)OCCCCC#CC#CCCCCOC(=O)NCC(=O)OCCCC | > 100 | > 100 | > 100 | > 100 | > 100 | > 100 | > 100 |  | > 100 | > 100 |  |  |  |  |  |  |  |  |  | 
COc1cccc2cc(C)c(C(=O)c3ccccc3)nc12 | > 100 |  | > 100 | > 100 | > 100 | > 100 | > 100 |  | > 100 |  |  |  |  |  |  |  |  |  |  | 
CC(=O)C1CC(C)=CCC12C(=O)Nc1ccccc12 (configuration not stated) | > 100 | > 100 | > 100 | > 100 |  | > 100 | > 100 | > 100 | > 100 | > 100 |  |  |  |  |  |  |  |  |  | 
COC1=CC(=O)c2ccccc2C1(CCC=C(C)C)C1=NC(C)(C)CO1 (configuration not stated) | > 100 |  | > 100 |  | > 100 | > 100 | > 100 | > 100 | > 100 | > 100 |  |  |  |  |  |  |  |  |  | 
COc1ccc2c3c1OC1CC(O)C=CC31CCN(C)C2 (configuration not stated) | > 150 | > 150 |  | > 150 | > 150 | > 15 | > 150 | > 150 | > 150 | > 150 |  |  |  |  |  |  |  |  |  | 
c1ccc(CNc2c3c(nc4ccccc24)CCC3)cc1 | 25 | 31.7 |  | 28.4 |  | 31.7 | 67.7 | 25.9 | 22 | 25 | 33.3 |  |  |  |  |  |  |  |  | 
Cc1ccc(F)cc1NC(=O)O/N=C(\Cl)C(C)C | 3.74 | 40.9 |  | 4.79 |  | 35.9 | > 56.8 | 7.07 | > 61.1 | 86 | 33.4 |  |  |  |  |  |  |  |  | 
CCOC(=O)/C(O)=C1\C(=O)N(C)C(=O)C1c1ccc(OC)c(OC)c1 (configuration not stated) | > 100 | > 100 |  | > 100 | > 100 | > 100 | > 100 | > 100 | > 100 | > 100 |  |  |  |  |  |  |  |  |  | 
CCOC(C[Se]CC(OCC)OCC)OCC | > 100 | > 100 |  | 59.4 |  | > 100 | > 100 | > 100 | > 100 | > 100 | > 100 |  |  |  |  |  |  |  |  | 
COc1ccc2nc3cc(Cl)ccc3c(NCCCCCC(=O)NC(COc3cnc4c(ccc5cccnc54)c3)COc3cnc4c(ccc5cccnc54)c3)c2c1 | 10.7 | 62.8 |  | 86.4 |  | > 100 | > 100 | > 100 | 55.5 | 23.1 | 26.8 |  |  |  |  |  |  |  |  | 
COc1cc2c(cc1C[N+](C)(C)CSc1ccccc1)-c1ccccc1CC2 | 5.73 | 37.9 |  | 14.6 |  | 14.6 | 10.7 | 26.2 | 25.5 | 9.43 | 11 |  |  |  |  |  |  |  |  | 
COc1ccc2[nH]c3c(c2c1)CCN(C)CC3 | > 100 | > 100 |  | > 100 | > 100 | > 100 | > 100 | > 100 | > 100 | > 100 |  |  |  |  |  |  |  |  |  | 
Cn1c(=O)c2c(nc(NCCCCl)n2CC(=O)O)n(C)c1=O | > 100 | > 100 |  | > 100 |  | > 100 | > 100 | > 100 | > 100 | > 100 | > 100 |  |  |  |  |  |  |  |  | 
COC(=O)/C=C/c1ccccc1N=[S@](C)(=O)c1ccc(C)cc1 | 26.7 | 43.8 |  | > 100 |  | > 100 | > 100 | > 100 | 76.9 | 49.9 | > 100 |  |  |  |  |  |  |  |  | 
c1ccc2c(-c3cnc(-c4c[nH]c5ccccc45)cn3)c[nH]c2c1 | > 100 | > 100 |  | 94.2 |  | > 100 | > 100 | > 100 | 50.4 | > 100 | > 100 |  |  |  |  |  |  |  |  | 
COc1ccc2c(c1)OC(c1cccnc1)C(c1ccccc1)C2=O (configuration not stated) | > 100 | > 100 |  | > 100 |  | > 100 | > 100 | > 100 | > 100 | > 100 | > 100 |  |  |  |  |  |  |  |  | 

Structure (SMILES) | TGI (COLO 205 colon) [µM] | TGI (A498 renal) [µM] | TGI (LXFL 529 NSCLC) [µM] | TGI (LOX IMVI melanoma) [µM] | TGI (M19-MEL melanoma) [µM] | TGI (OVCAR-8 ovarian) [µM] | TGI (SNB-19 CNS) [µM] | TGI (HOP-92 NSCLC) [µM] | TGI (SF-295 CNS) [µM] | TGI (NCI-H460 lung) [µM] | TGI (PC-3 prostate) [µM] | GI50 (PC-3 prostate) [µM] | GI50 (COLO 205 colon) [µM] | GI50 (A498 renal) [µM] | GI50 (LOX IMVI melanoma) [µM] | GI50 (OVCAR-8 ovarian) [µM] | GI50 (SNB-19 CNS) [µM] | GI50 (HOP-92 NSCLC) [µM] | GI50 (SF-295 CNS) [µM] | GI50 (NCI-H460 lung) [µM]
CN(C)C(=S)N/N=C\C=N/NC(=S)N(C)C | > 100 | 34.5 |  | > 100 |  | > 100 | > 100 | > 100 | > 32.1 | > 100 | > 100 |  |  |  |  |  |  |  |  | 
COc1cccc(N2C(=O)C3c4[nH]c5ccccc5c4C4c5ccccc5CCC4C3C2=O)c1 (configuration not stated) | > 10 | 8.53 |  | > 10 |  | 9.9 | > 10 | > 10 | > 10 | > 10 | > 10 |  |  |  |  |  |  |  |  | 
CCC(C)[C@H](NC(=O)N[C@H](C)c1ccccc1)C(=O)OC (some centres not stated) | > 100 | > 100 |  | > 100 |  | > 100 | > 100 | > 100 | > 100 | > 100 | > 100 |  |  |  |  |  |  |  |  | 
CSc1nc(NC2CCCC2)c2cc[nH]c2n1 | > 100 | 80.3 |  | > 100 |  | > 100 | > 100 | > 100 | > 100 | > 100 | > 100 |  |  |  |  |  |  |  |  | 
O=C(NCCN(CCNC(=O)c1cccc(=O)n1O)CCN(CCNC(=O)c1cccc(=O)n1O)CCNC(=O)c1cccc(=O)n1O)c1cccc(=O)n1O | > 100 | > 100 |  | > 100 |  | > 100 | > 100 | > 100 | > 100 | > 100 | > 100 |  |  |  |  |  |  |  |  | 
COc1ccc(N2C=Nn3c(nc4sc(C)c(C)c4c3=O)C2)cc1 | > 100 | > 100 |  | > 100 |  | > 100 | > 100 | > 100 | > 100 | > 100 | > 100 |  |  |  |  |  |  |  |  | 
Cn1ccnc1Sc1ccc(/C=N/NC(=O)c2ccccc2O)cc1[N+](=O)[O-] | 56.8 | > 100 |  | > 100 |  | > 100 | > 100 | > 100 | > 100 | > 100 | > 100 |  |  |  |  |  |  |  |  | 
CN(C)c1ccc(/C=N/Nc2nc3ccccc3c(=O)n2-c2ccccc2)cc1 | > 100 | > 100 |  | > 100 |  | > 100 | > 100 | 85.9 | > 100 | > 100 | > 100 |  |  |  |  |  |  |  |  | 
CCN(CC)Cc1nc2sc3c(c2c(=O)n1-c1ccccc1)CCCC3 | 43.6 | 45.2 |  | 28.7 |  | 32.7 | > 100 | 51.4 | 66.3 | 40.8 | 34 |  |  |  |  |  |  |  |  | 
C=CC(=O)N1C/C(=C\c2ccc(N(C)C)cc2)C(=O)/C(=C/c2ccc(N(C)C)cc2)C1 | > 100 | > 100 |  | > 100 |  | > 100 | > 100 | > 100 | > 100 | > 100 | > 100 |  |  |  |  |  |  |  |  | 
CC(=O)O[C@H]1CC[C@@]2(C)C(=CC[C@@H]3[C@@H]2CC[C@]2(C)C(c4cccnc4)=CC[C@@H]32)C1 | > 100 | 74 |  | > 100 |  | > 100 | > 100 | 32.5 | 8.35 | > 100 | > 100 | 3.98 | 5.1 | 10.4 | 6.49 | 19.3 | 24.1 | 3.08 | 2.33 | 5.91
Cc1c(-c2c(C)c3ccccc3n2S(=O)(=O)c2ccccc2)n(S(=O)(=O)c2ccccc2)c2ccccc12 | > 100 | > 100 |  | > 100 |  | > 100 | > 100 | > 100 | > 100 | 16.3 | > 100 |  |  |  |  |  |  |  |  | 
CCCCCc1cc(OC(=O)c2c(O)cc(OC)cc2CCCCC)cc(O)c1C(=O)O | 34.5 | 35.6 | 30.5 | 33.1 | 33.8 | 36.3 | 25.5 | 31 | 35.4 | 31.3 |  |  |  |  |  |  |  |  |  | 
CC(C)(NC(=O)OCc1ccccc1)C(=O)NC(Cc1ccccc1)C(=O)O (configuration not stated) (Cbz-[Aib]-[ξF]-OH) | > 100 | > 100 |  | > 100 |  | > 100 | > 100 | > 100 | > 100 | > 100 | > 100 |  |  |  |  |  |  |  |  | 
COC(=O)c1cc(C)ccc1CC(Cc1cccc(C)c1)C(=O)OC (configuration not stated) | > 100 | > 100 |  | > 100 |  | > 100 | > 100 | > 100 | > 100 | > 100 | > 100 |  |  |  |  |  |  |  |  | 
CCCC/C=C1\CCC(CN2CCCCC2)C1=O (configuration not stated) | 29 | 31.6 | 3.26 | > 48.2 | 34.5 | 33.1 | 49.4 | 21 | 45.5 | 55.5 | > 100 |  |  |  |  |  |  |  |  | 
